From ChEMBL document CHEMBL4316586, “A comprehensive review of salinomycin derivatives as potent anticancer and anti-CSCs agents” (Eur J Med Chem, 2019) come the findings set out here.

The structures appear in SMILES notation.

Test [1] deals with JIMT-1. In words: Antiproliferative activity against human JIMT1 cells by MTT assay. The test is classed as functional, cell-based. (In general: Tetrazolium assays rely on reduction of a dye to a coloured formazan, in cell work by metabolically active cells.)
The test system of test [2] is MCF7. In words: Antiproliferative activity against human MCF7 cells by MTT assay. It is filed as functional, cell-based.
The test system of test [3] is HeLa. In words: Antiproliferative activity against human HeLa cells by MTT assay. The test is classed as functional, cell-based.
In test [4] the test system is U-87 MG. Briefly: Antiproliferative activity against human U87 cells by MTT assay. The test is classed as functional, cell-based, U-87MG ATCC.
The test system of test [5] is Caco-2. Briefly: Antiproliferative activity against human Caco2 cells by MTT assay. The test is classed as functional, cell-based.
Test [6] concerns MDA-MB-231. In words: Antiproliferative activity against human MDA-MB-231 cells after 48 hrs by MTT assay. It is filed as functional, cell-based. To be noted: MDA-MB-231, 48 h.
Test [7] deals with HT-29. Briefly: Antiproliferative activity against human HT-29 cells after 48 hrs by MTT assay. The test is classed as functional, cell-based. To be noted: HT-29, 48 h.
Test [8] concerns HGC-27. Briefly: Antiproliferative activity against human HGC27 cells after 48 hrs by MTT assay. It is filed as functional, cell-based. To be noted: HGC-27, 48 h.
Test [9] deals with HGC-27. Briefly: Antiproliferative activity against human HGC27 cells by MTT assay. It is filed as functional, cell-based.
Test [10] deals with HT-29. Briefly: Antiproliferative activity against human HT-29 cells by MTT assay. It is filed as functional, cell-based.
Test [11] relates to MDA-MB-231. In words: Antiproliferative activity against human MDA-MB-231 cells by MTT assay. The test is classed as functional, cell-based.

In the case of `CC[C@@H](C(=O)[C@@H](C)[C@@H](O)[C@H](C)[C@@H]1O[C@@H]([C@@H](CC)C(=O)O)CC[C@@H]1C)[C@H]1O[C@]2(C=C[C@@H](OC(=O)NC(C)(C)C)[C@]3(CC[C@@](C)([C@H]4CC[C@](O)(CC)[C@H](C)O4)O3)O2)[C@H](C)C[C@@H]1C`, the IC50 (as a rule, the concentration that gives 50% inhibition) in test [1] was 380 nM; in [2] it was 420 nM.
The corresponding values for `C=CC(=O)O[C@@H]1C=C[C@]2(O[C@H]([C@@H](CC)C(=O)[C@@H](C)[C@@H](O)[C@H](C)[C@@H]3O[C@@H]([C@@H](CC)C(=O)O)CC[C@@H]3C)[C@@H](C)C[C@H]2C)O[C@@]12CC[C@@](C)([C@H]1CC[C@](O)(CC)[C@H](C)O1)O2` are 390 nM and 610 nM.
For `CC[C@@H](C(=O)[C@@H](C)[C@@H](O)[C@H](C)[C@@H]1O[C@@H]([C@@H](CC)C(=O)O)CC[C@@H]1C)[C@H]1O[C@]2(C=C[C@H](n3cc(-c4ccccn4)nn3)[C@]3(CC[C@@](C)([C@H]4CC[C@](O)(CC)[C@H](C)O4)O3)O2)[C@H](C)C[C@@H]1C`, the figures for the 50% inhibitory concentration (IC50) in [3], in [4] and in test [5] were 610 nM, 15.7 µM and 3310 nM, respectively.
Taken in the same sequence, the figures for `CC[C@@H](C(=O)[C@@H](C)[C@@H](O)[C@H](C)[C@@H]1O[C@@H]([C@@H](CC)C(=O)O)CC[C@@H]1C)[C@H]1O[C@]2(C=C[C@H](n3cc(COC(C(F)(F)F)(C(F)(F)F)C(F)(F)F)nn3)[C@]3(CC[C@@](C)([C@H]4CC[C@](O)(CC)[C@H](C)O4)O3)O2)[C@H](C)C[C@@H]1C` were 290 nM, 16.6 µM and 440 nM.
Consider `CC[C@@H](C(=O)[C@@H](C)[C@@H](O)[C@H](C)[C@@H]1O[C@@H]([C@@H](CC)C(=O)O)CC[C@@H]1C)[C@H]1O[C@@]2(C=C[C@@H](OCc3ccccc3)[C@@]3(CC[C@@](C)([C@H]4CC[C@](O)(CC)[C@H](C)O4)O3)O2)[C@H](C)C[C@@H]1C`, for which the values for the IC50 in [6], in test [7] and in test [8] were 6.56 µM, 2.8 µM and 4.14 µM, respectively.
Turning to `CC[C@@H](C(=O)[C@@H](C)[C@@H](O)[C@H](C)[C@@H]1O[C@@H]([C@@H](CC)C(=O)O)CC[C@@H]1C)[C@H]1O[C@]2(C=C[C@H](n3cc(-c4ccc(C(C)(C)C)cc4)nn3)[C@]3(CC[C@@](C)([C@H]4CC[C@](O)(CC)[C@H](C)O4)O3)O2)[C@H](C)C[C@@H]1C`, the half-maximal inhibitory concentration (IC50) in test [3] came out at 2010 nM; in test [4] it was 18.9 µM; in test [5], 1820 nM.
In the case of `CC[C@@H](C(=O)[C@@H](C)[C@@H](O)[C@H](C)[C@@H]1O[C@@H]([C@@H](CC)C(=O)O)CC[C@@H]1C)[C@H]1O[C@]2(C=C[C@@H](OC(=O)Oc3ccccc3)[C@]3(CC[C@@](C)([C@H]4CC[C@](O)(CC)[C@H](C)O4)O3)O2)[C@H](C)C[C@@H]1C`, the IC50 in [1] amounted to 200 nM; in [2], 240 nM.
Take `CCC(=O)O[C@H]1C=C[C@]2(O[C@H]([C@@H](CC)C(=O)[C@@H](C)[C@@H](O)[C@H](C)[C@@H]3O[C@@H]([C@@H](CC)C(=O)O)CC[C@@H]3C)[C@@H](C)C[C@H]2C)O[C@@]12CC[C@@](C)([C@H]1CC[C@](O)(CC)[C@H](C)O1)O2`: the figures for the IC50 in [9], in test [10] and in test [11] were 890 nM, 840 nM and 1890 nM, respectively.
Regarding `CC[C@@H](C(=O)[C@@H](C)[C@@H](O)[C@H](C)[C@@H]1O[C@@H]([C@@H](CC)C(=O)O)CC[C@@H]1C)[C@H]1O[C@]2(C=C[C@@H](OC(=O)C(C)C)[C@]3(CC[C@@](C)([C@H]4CC[C@](O)(CC)[C@H](C)O4)O3)O2)[C@H](C)C[C@@H]1C`, the 50% inhibitory concentration (IC50) in [1] is 150 nM; in test [2], 190 nM.
Regarding `CC[C@@H](C(=O)[C@@H](C)[C@@H](O)[C@H](C)[C@@H]1O[C@@H]([C@@H](CC)C(=O)O)CC[C@@H]1C)[C@H]1O[C@]2(C=C[C@H](OC(C)=O)[C@]3(CC[C@@](C)([C@H]4CC[C@](O)(CC)[C@H](C)O4)O3)O2)[C@H](C)C[C@@H]1C`, the IC50 in test [9] was determined as 940 nM; in test [10], 800 nM; in test [11] it was 1960 nM.
For the molecule `CC[C@@H](C(=O)[C@@H](C)[C@@H](O)[C@H](C)[C@@H]1O[C@@H]([C@@H](CC)C(=O)O)CC[C@@H]1C)[C@H]1O[C@@]2(C=C[C@@H](OCc3ccccc3)[C@]3(CC[C@@](C)([C@H]4CC[C@](O)(CC)[C@H](C)O4)O3)O2)[C@H](C)C[C@@H]1C`, the IC50 in [6], in [7] and in test [8] was over 10 µM each time.
With `CC[C@@H](C(=O)[C@@H](C)[C@@H](O)[C@H](C)[C@@H]1O[C@@H]([C@@H](CC)C(=O)O)CC[C@@H]1C)[C@H]1O[C@]2(C=C[C@@H](OC(=O)c3cnco3)[C@]3(CC[C@@](C)([C@H]4CC[C@](O)(CC)[C@H](C)O4)O3)O2)[C@H](C)C[C@@H]1C`, the IC50 stood at 240 nM in test [1] and 230 nM in test [2].
Taken in the same sequence, the figures for `CC[C@@H](C(=O)[C@@H](C)[C@@H](O)[C@H](C)[C@@H]1O[C@@H]([C@@H](CC)C(=O)O)CC[C@@H]1C)[C@H]1O[C@]2(C=C[C@@H](OC(=O)C3CCCCC3)[C@]3(CC[C@@](C)([C@H]4CC[C@](O)(CC)[C@H](C)O4)O3)O2)[C@H](C)C[C@@H]1C` were 300 nM and 240 nM.
The corresponding values for `CC[C@@H](C(=O)[C@@H](C)[C@@H](O)[C@H](C)[C@@H]1O[C@@H]([C@@H](CC)C(=O)O)CC[C@@H]1C)[C@H]1O[C@]2(C=C[C@@H](OC(=O)c3ccccc3)[C@]3(CC[C@@](C)([C@H]4CC[C@](O)(CC)[C@H](C)O4)O3)O2)[C@H](C)C[C@@H]1C` are 360 nM and 200 nM.
In the case of `CC[C@@H](C(=O)[C@@H](C)[C@@H](O)[C@H](C)[C@@H]1O[C@@H]([C@@H](CC)C(=O)O)CC[C@@H]1C)[C@H]1O[C@]2(C=C[C@H](OC(=O)CC(C)C)[C@]3(CC[C@@](C)([C@H]4CC[C@](O)(CC)[C@H](C)O4)O3)O2)[C@H](C)C[C@@H]1C`, the results for the IC50 in [9], in test [10] and in test [11] were 860 nM, 890 nM and 2780 nM, respectively.
For the molecule `CCOC(=O)O[C@@H]1C=C[C@]2(O[C@H]([C@@H](CC)C(=O)[C@@H](C)[C@@H](O)[C@H](C)[C@@H]3O[C@@H]([C@@H](CC)C(=O)O)CC[C@@H]3C)[C@@H](C)C[C@H]2C)O[C@@]12CC[C@@](C)([C@H]1CC[C@](O)(CC)[C@H](C)O1)O2`, the figures for the IC50 in test [1] and in test [2] were 90 nM and 130 nM, respectively.
Taken in the same sequence, the figures for `CCNC(=O)O[C@@H]1C=C[C@]2(O[C@H]([C@@H](CC)C(=O)[C@@H](C)[C@@H](O)[C@H](C)[C@@H]3O[C@@H]([C@@H](CC)C(=O)O)CC[C@@H]3C)[C@@H](C)C[C@H]2C)O[C@@]12CC[C@@](C)([C@H]1CC[C@](O)(CC)[C@H](C)O1)O2` were 260 nM and 160 nM.
Taken in the same sequence, the figures for `CC[C@@H](C(=O)[C@@H](C)[C@@H](O)[C@H](C)[C@@H]1O[C@@H]([C@@H](CC)C(=O)O)CC[C@@H]1C)[C@H]1O[C@]2(C=C[C@@H](OC(=O)c3ccco3)[C@]3(CC[C@@](C)([C@H]4CC[C@](O)(CC)[C@H](C)O4)O3)O2)[C@H](C)C[C@@H]1C` were 160 nM and 130 nM.
For `CC[C@@H](C(=O)[C@@H](C)[C@@H](O)[C@H](C)[C@@H]1O[C@@H]([C@@H](CC)C(=O)O)CC[C@@H]1C)[C@H]1O[C@]2(C=C[C@H](OC(=O)c3ccc(F)cc3)[C@]3(CC[C@@](C)([C@H]4CC[C@](O)(CC)[C@H](C)O4)O3)O2)[C@H](C)C[C@@H]1C`, the concentration for half-maximal inhibition (IC50) was found to be 280 nM in [9], 160 nM in [10] and 790 nM in [11].
For the molecule `CC[C@@H](C(=O)[C@@H](C)[C@@H](O)[C@H](C)[C@@H]1O[C@@H]([C@@H](CC)C(=O)O)CC[C@@H]1C)[C@H]1O[C@]2(C=C[C@H](n3cc(-c4ccc(-c5ccccc5)cc4)nn3)[C@]3(CC[C@@](C)([C@H]4CC[C@](O)(CC)[C@H](C)O4)O3)O2)[C@H](C)C[C@@H]1C`, the IC50 in [3] is 330 nM; in [4] it was 50 µM; in test [5], 1290 nM.
As to `CC[C@@H](C(=O)[C@@H](C)[C@@H](O)[C@H](C)[C@@H]1O[C@@H]([C@@H](CC)C(=O)O)CC[C@@H]1C)[C@H]1O[C@]2(C=C[C@H](OC(=O)c3ccccc3)[C@]3(CC[C@@](C)([C@H]4CC[C@](O)(CC)[C@H](C)O4)O3)O2)[C@H](C)C[C@@H]1C`, the half-inhibitory concentration (IC50) in test [9] is 240 nM; in test [10], 180 nM; in test [11], 790 nM.
For the molecule `CC[C@@H](C(=O)[C@@H](C)[C@@H](O)[C@H](C)[C@@H]1O[C@@H]([C@@H](CC)C(=O)O)CC[C@@H]1C)[C@H]1O[C@]2(C=C[C@@H](OC(=O)C(C)(C)C)[C@]3(CC[C@@](C)([C@H]4CC[C@](O)(CC)[C@H](C)O4)O3)O2)[C@H](C)C[C@@H]1C`, the half-maximal inhibitory concentration (IC50) in test [1] came to 230 nM; in test [2], 170 nM.
For `CC[C@@H](C(=O)[C@@H](C)[C@@H](O)[C@H](C)[C@@H]1O[C@@H]([C@@H](CC)C(=O)O)CC[C@@H]1C)[C@H]1O[C@@]2(C=C[C@@H](O)[C@]3(CC[C@@](C)([C@H]4CC[C@](O)(CC)[C@H](C)O4)O3)O2)[C@H](C)C[C@@H]1C`, the IC50 in [6], in test [7] and in [8] was over 10 µM in each case.
For the molecule `CC[C@@H](C(=O)[C@@H](C)[C@@H](O)[C@H](C)[C@@H]1O[C@@H]([C@@H](CC)C(=O)O)CC[C@@H]1C)[C@H]1O[C@]2(C=C[C@@H](OC(C)=O)[C@]3(CC[C@@](C)([C@H]4CC[C@](O)(CC)[C@H](C)O4)O3)O2)[C@H](C)C[C@@H]1C`, the concentration for half-maximal inhibition (IC50) in test [1] and in [2] was 110 nM throughout.
